From paper PMC7932537, “Quantitative profiling of protease specificity” (PLoS Computational Biology, 2021)

Assays:
MMP-2 [1] = target: T1, MMP-2 (Homo sapiens, UniProt P08253); experiment: K(obs) of individual phage substrates (set of 1369); assay type: biochemical; conditions: MMP2; individual phage substrate from the set of 1369 peptides; hyphen in the sequence marks the cleavage position
T1 sequence (P08253 110-660): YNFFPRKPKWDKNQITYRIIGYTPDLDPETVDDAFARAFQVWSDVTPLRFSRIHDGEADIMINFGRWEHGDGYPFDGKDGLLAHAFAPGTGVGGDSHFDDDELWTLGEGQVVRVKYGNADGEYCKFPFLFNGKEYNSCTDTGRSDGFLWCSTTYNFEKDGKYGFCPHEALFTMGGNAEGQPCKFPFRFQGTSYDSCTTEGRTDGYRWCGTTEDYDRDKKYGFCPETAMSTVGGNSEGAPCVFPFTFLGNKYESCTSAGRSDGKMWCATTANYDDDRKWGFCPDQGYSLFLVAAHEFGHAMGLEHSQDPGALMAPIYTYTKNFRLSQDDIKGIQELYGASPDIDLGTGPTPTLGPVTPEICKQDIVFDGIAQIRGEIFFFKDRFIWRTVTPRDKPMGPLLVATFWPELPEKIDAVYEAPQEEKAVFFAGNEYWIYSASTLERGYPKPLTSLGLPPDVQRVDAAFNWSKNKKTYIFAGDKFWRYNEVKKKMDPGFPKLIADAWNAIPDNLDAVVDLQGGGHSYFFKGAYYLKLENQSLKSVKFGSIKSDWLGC

MMP-9 [2] = experiment: Substrate phage display with NGS: relative probability (RP) of P3-P1' tetramer clusters; assay type: biochemical, human; conditions: for corresponding MMP9 relative probability (RP): MMP2 tetramers from unique substrates, RP of same tetramer for MMP9
MMP-9 [3] = target: MMP-9 (Homo sapiens, UniProt P14780); experiment: K(obs) of individual phage substrates (set of 1369); assay type: biochemical; conditions: MMP9; individual phage substrate of the set of 1369 peptides; dash in sequence marks cleavage position
MMP-2 [4] = experiment: Substrate phage display with NGS: relative probability (RP) of P3-P1' tetramer clusters; assay type: biochemical, human; conditions: for MMP2 relative probability (RP): MMP2 tetramers from unique substrates, unrounded values; for relative probability (RP) of matching tetramer: P3-P1' tetramer matching the MS detected MMP2 cleavage sequence, RP_above_4.5
[5] = MMP9, RP of the substrate's P3-P1' tetramer, substrate phage display with NGS
[6] = RP according to MMP9, P3-P1' tetramer of unique physiologic MMP9 substrates from MEROPS
[7] = RP of the P3-P1' tetramer, MMP9 substrate phage display/NGS, tetramers of physiologic MEROPS substrates common to MMP2 and MMP9
[8] = RP according to MMP2, P3-P1' tetramer of unique physiologic MMP2 substrates from MEROPS
[9] = RP of the P3-P1' tetramer, MMP2 substrate phage display/NGS, tetramers of physiologic MEROPS substrates common to MMP2 and MMP9
[10] = MMP9, RP of the P3-P1' tetramer contained in the hexamer substrate (substrate phage display, NGS)
[11] = RP of the P3-P1' tetramer cluster contained in the hexamer, 200 nM MMP-2, 2 h, 37°C, two rounds of selection
[12] = MMP9, RP of matching P3-P1' tetramer, common set of MMP2-9 selectome
[13] = MMP2, RP of matching P3-P1' tetramer, common set of MMP2-9 selectome, RP above KL threshold
[14] = MMP9, RP of the P3-P1' tetramer matching the MS detected cleavage, RP above 4.7, substrate phage display with NGS
[15] = RP of matching tetramer, common MMP2-9 selectome, RP above KL threshold
[16] = RP of matching tetramer, common MMP2-9 selectome

Chain of MMP-9 (Homo sapiens, UniProt P14780) (P14780 94-707): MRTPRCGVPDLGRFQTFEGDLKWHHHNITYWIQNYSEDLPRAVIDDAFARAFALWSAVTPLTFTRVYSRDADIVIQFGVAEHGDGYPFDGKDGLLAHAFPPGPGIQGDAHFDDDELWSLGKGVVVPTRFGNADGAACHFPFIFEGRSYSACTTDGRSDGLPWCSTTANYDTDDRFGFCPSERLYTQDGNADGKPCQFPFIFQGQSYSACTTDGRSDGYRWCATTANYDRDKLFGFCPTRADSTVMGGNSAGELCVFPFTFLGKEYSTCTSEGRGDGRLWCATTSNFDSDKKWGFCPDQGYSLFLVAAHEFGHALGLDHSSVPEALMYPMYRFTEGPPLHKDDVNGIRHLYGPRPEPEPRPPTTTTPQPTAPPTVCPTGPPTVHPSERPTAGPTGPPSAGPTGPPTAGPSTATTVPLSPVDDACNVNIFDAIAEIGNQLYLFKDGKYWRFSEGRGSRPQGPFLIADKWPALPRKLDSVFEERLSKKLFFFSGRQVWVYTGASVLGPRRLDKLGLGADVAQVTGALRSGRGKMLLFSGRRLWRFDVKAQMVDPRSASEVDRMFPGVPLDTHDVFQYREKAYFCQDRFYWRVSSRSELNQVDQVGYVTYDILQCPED

| Substance | Kobs (MMP-2 [1]) | relative probability (RP) (MMP-9 [2]; [5]) | Kobs (MMP-9 [3]) | further results |
| --- | --- | --- | --- | --- |
| SGVRG-MHGTA | 1610.61 M⁻¹ s⁻¹ | 38.9419 | 5667.28 M⁻¹ s⁻¹ |  |
| EWPSR-MTASG | 6396.07 M⁻¹ s⁻¹ | 33.7336 | 3964.21 M⁻¹ s⁻¹ |  |
| WNPSY-LTASG | 12792.1 M⁻¹ s⁻¹ | 40.8983 | 8941.32 M⁻¹ s⁻¹ |  |
| GWIAT-LRTAS | 5090.5 M⁻¹ s⁻¹ | 0.199 | 1561.44 M⁻¹ s⁻¹ |  |
| YSTLR-TASGA | 12792.1 M⁻¹ s⁻¹ | 0 | 1239.69 M⁻¹ s⁻¹ |  |
| SGVLS-LQSTA | 2916.17 M⁻¹ s⁻¹ | 27.5596 | 7015.91 M⁻¹ s⁻¹ |  |
| WTPRG-NTASG | 231.616 M⁻¹ s⁻¹ | 15.8425 | 2409.72 M⁻¹ s⁻¹ |  |
| RQPFL-LTASG | 1154.21 M⁻¹ s⁻¹ | 33.1122 | 12792.1 M⁻¹ s⁻¹ |  |
| HTVYW-MTASG | 2038.8 M⁻¹ s⁻¹ | 40.8648 | 6396.07 M⁻¹ s⁻¹ |  |
| MPMGR-LTASG | 4082.43 M⁻¹ s⁻¹ | 2.466 | 113.394 M⁻¹ s⁻¹ |  |
| GMPGR-LSTAS | 7015.91 M⁻¹ s⁻¹ | 29.3451 | 517.582 M⁻¹ s⁻¹ |  |
| WSPSS-YTASG | 12792.1 M⁻¹ s⁻¹ | 41.6306 | 3344.37 M⁻¹ s⁻¹ |  |
| FIPMW-STASG | 451.441 M⁻¹ s⁻¹ | 27.7553 | 6131.32 M⁻¹ s⁻¹ |  |
| KSPRP-YTASG | 12792.1 M⁻¹ s⁻¹ | 47.6856 | 12792.1 M⁻¹ s⁻¹ |  |
| VDVSF-LTASG | 8941.32 M⁻¹ s⁻¹ | 1.252 | 912.511 M⁻¹ s⁻¹ |  |
| SKPWK-LTASG | 1561.44 M⁻¹ s⁻¹ | 43.1496 | 12792.1 M⁻¹ s⁻¹ |  |
| SGPRA-VSATA | 12792.1 M⁻¹ s⁻¹ | 40.8515 | 12792.1 M⁻¹ s⁻¹ |  |
| SLPLL-LTASG | 2996.69 M⁻¹ s⁻¹ | 32.5638 | 12792.1 M⁻¹ s⁻¹ |  |
| QMPLQ-ITASG | 8941.32 M⁻¹ s⁻¹ | 44.6329 | 6131.32 M⁻¹ s⁻¹ |  |
| SGPVA-MTKTA | 1418.96 M⁻¹ s⁻¹ | 44.6624 | 6396.07 M⁻¹ s⁻¹ |  |
| RKLAF-LTASG | 12792.1 M⁻¹ s⁻¹ | 0.6348 | 726.013 M⁻¹ s⁻¹ |  |
| SGVAW-LKHTA | 12792.1 M⁻¹ s⁻¹ | 35.286 | 4205.91 M⁻¹ s⁻¹ |  |
| LSKI |  |  |  | corresponding MMP9 relative probability (RP) (MMP-9 [2]): 0.06898; Relative probability (RP) rank (MMP-9 [2]; [6]): 65498; relative probability (RP) (MMP-9 [2]; [6]): 0.07; relative probability (RP) (acc.to MMP9) (MMP-9 [2]; [7]): 0.07; MMP2 relative probability (RP) (MMP-2 [4]): 4.524; Relative probability (RP) rank (MMP-2 [4]; [8]): 7909; relative probability (RP) (MMP-2 [4]; [8]): 4.52; relative probability (RP) (acc.to MMP2) (MMP-2 [4]; [9]): 4.52 |

| Substance | Kobs (MMP-2 [1]) | relative probability (RP) (MMP-9 [2]; [5]) | Kobs (MMP-9 [3]) | further results |
| --- | --- | --- | --- | --- |
| PGNR |  |  |  | relative probability (RP) (acc.to MMP9) (MMP-9 [2]; [7]): 0.05; relative probability (RP) (acc.to MMP2) (MMP-2 [4]; [9]): 0.12 |
| PHGYKG |  |  |  | relative probability (RP) (MMP-9 [2]; [10]): 44.1642; relative probability (RP) (MMP-2 [4]; [11]): 24.9359 |
| GPKGFR |  |  |  | relative probability (RP) (MMP-9 [2]; [10]): 42.0715; relative probability (RP) (MMP-2 [4]; [11]): 30.2308 |
| IHSL |  |  |  | relative probability (RP) (acc.to MMP9) (MMP-9 [2]; [12]): 4.86; relative probability (RP) (acc.to MMP2) (MMP-2 [4]; [13]): 6.87; relative probability (RP) of matching tetramer (MMP-2 [4]): 6.87 |
| PEPAAL |  |  |  | relative probability (RP) (MMP-9 [2]; [10]): 47.6262; relative probability (RP) (MMP-2 [4]; [11]): 35.8015 |
| LRAV |  |  |  | relative probability (RP) (MMP-9 [2]; [14]): 11.9; relative probability (RP) (acc.to MMP9) (MMP-9 [2]; [15]): 11.9; relative probability (RP) (acc.to MMP2) (MMP-2 [4]; [16]): 11.96 |
| GPRGLK |  |  |  | relative probability (RP) (MMP-9 [2]; [10]): 47.3825; relative probability (RP) (MMP-2 [4]; [11]): 35.2511 |
| PTGK |  |  |  | relative probability (RP) (acc.to MMP9) (MMP-9 [2]; [7]): 0; relative probability (RP) (acc.to MMP2) (MMP-2 [4]; [9]): 0.04 |
| PVEL |  |  |  | relative probability (RP) (acc.to MMP9) (MMP-9 [2]; [7]): 35.1; relative probability (RP) (acc.to MMP2) (MMP-2 [4]; [9]): 25.47 |
| HQKL |  |  |  | relative probability (RP) (acc.to MMP9) (MMP-9 [2]; [7]): 0.06; relative probability (RP) (acc.to MMP2) (MMP-2 [4]; [9]): 2.29 |
| RRPRPL |  |  |  | relative probability (RP) (MMP-9 [2]; [10]): 46.7888; relative probability (RP) (MMP-2 [4]; [11]): 34.3303 |
| VYHQ |  |  |  | MMP9 relative probability (RP) (MMP-9 [2]; MMP9 tetramers from unique substrates, unrounded values): 0.1039; corresponding MMP2 relative probability (RP) (MMP-2 [4]; MMP9 tetramers from unique substrates, RP of same tetramer for MMP2): 13.6887 |
| PRAV |  |  |  | relative probability (RP) (acc.to MMP9) (MMP-9 [2]; [12]): 40.85; relative probability (RP) (MMP-9 [2]; [14]): 40.85; relative probability (RP) (acc.to MMP9) (MMP-9 [2]; [15]): 40.85; avg_RP (MMP-2 [4]; MMP2 - no binning, average relative probability of the tetramer, redundant tetramers averaged out): 28.3444; relative probability (RP) (acc.to MMP2) (MMP-2 [4]; [13]): 28.34; relative probability (RP) of matching tetramer (MMP-2 [4]): 28.34; relative probability (RP) (acc.to MMP2) (MMP-2 [4]; [16]): 28.34 |
| PTNL |  |  |  | relative probability (RP) (acc.to MMP9) (MMP-9 [2]; [7]): 36.13; relative probability (RP) (acc.to MMP2) (MMP-2 [4]; [9]): 31.03 |
| PEAI |  |  |  | relative probability (RP) (acc.to MMP9) (MMP-9 [2]; [7]): 36.36; relative probability (RP) (acc.to MMP2) (MMP-2 [4]; [9]): 22.52 |
| VQAM |  |  |  | relative probability (RP) (MMP-9 [2]; [14]): 21.63; relative probability (RP) (acc.to MMP9) (MMP-9 [2]; [15]): 21.63; relative probability (RP) (acc.to MMP2) (MMP-2 [4]; [16]): 21.36 |
| GPARPY |  |  |  | relative probability (RP) (MMP-9 [2]; [10]): 36.8874; relative probability (RP) (MMP-2 [4]; [11]): 20.5004 |
| MSPANI |  |  |  | relative probability (RP) (MMP-9 [2]; [10]): 46.3162; relative probability (RP) (MMP-2 [4]; [11]): 33.5547 |
| IAFL |  |  |  | relative probability (RP) (acc.to MMP9) (MMP-9 [2]; [12]): 10.97; relative probability (RP) (acc.to MMP2) (MMP-2 [4]; [13]): 22.55; relative probability (RP) of matching tetramer (MMP-2 [4]): 22.55 |
| APGN |  |  |  | relative probability (RP) (acc.to MMP9) (MMP-9 [2]; [7]): 2.38; relative probability (RP) (acc.to MMP2) (MMP-2 [4]; [9]): 3.62 |
| VHPSAV |  |  |  | relative probability (RP) (MMP-9 [2]; [10]): 36.5372; relative probability (RP) (MMP-2 [4]; [11]): 29.6865 |
| PGAY |  |  |  | relative probability (RP) (acc.to MMP9) (MMP-9 [2]; [7]): 33.81; relative probability (RP) (acc.to MMP2) (MMP-2 [4]; [9]): 27.42 |
| LGTY |  |  |  | corresponding MMP9 relative probability (RP) (MMP-9 [2]): 0.2972; MMP2 relative probability (RP) (MMP-2 [4]): 6.755; Relative probability (RP) rank (MMP-2 [4]; [8]): 6426; relative probability (RP) (MMP-2 [4]; [8]): 6.75 |
